The target in the first assay is T1, GLUT1 (Homo sapiens, UniProt P11166).
T1 sequence (P11166 1-492): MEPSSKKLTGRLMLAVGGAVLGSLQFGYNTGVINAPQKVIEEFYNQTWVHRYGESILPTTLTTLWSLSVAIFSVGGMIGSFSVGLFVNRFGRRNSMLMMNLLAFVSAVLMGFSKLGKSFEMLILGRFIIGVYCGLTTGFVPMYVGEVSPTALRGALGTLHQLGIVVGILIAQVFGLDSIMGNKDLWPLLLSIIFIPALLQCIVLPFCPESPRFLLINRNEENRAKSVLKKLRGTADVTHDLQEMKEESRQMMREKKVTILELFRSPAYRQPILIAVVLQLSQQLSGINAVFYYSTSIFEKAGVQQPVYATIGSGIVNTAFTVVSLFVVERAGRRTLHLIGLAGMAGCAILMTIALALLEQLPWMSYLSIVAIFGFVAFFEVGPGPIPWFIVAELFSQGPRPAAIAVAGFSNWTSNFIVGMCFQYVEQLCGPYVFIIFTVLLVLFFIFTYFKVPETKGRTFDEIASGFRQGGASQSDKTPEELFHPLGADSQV
Kind of assay: Indirect measurement of GLUT1 activity by quantification of intracellular ATP levels (glucose induced ATP increase). The assay is classed as cell-based. The arrangement: endogenous in cells; host or cells: DLD1 or CHO-K1. Particulars: DLD1 cells; 0.1 mM glucose, 1 μM Rotenone, 15 min; CellTiter-Glo ATP readout; IC50 values standardized to cytochalasin B IC50 values; read-out: IC50 regarding glucose induced ATP increase (GLUT1 inhibition). A digest of the protocol: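 DLD1 or CHO-K1 cells were starved overnight in glucose-free medium with 1% FCS, then combined with an oxidative phosphorylation inhibitor. GLUT1 activity was read as glucose-induced ATP increase, GLUT2 as fructose-induced. Intracellular ATP was quantified by CellTiter-Glo luminescence.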
A general note: In ATP-based viability assays light output follows the ATP content of the culture.
For orientation: IC50 means the concentration needed to halve the response being measured. Turning to `Cc1c(NC(=O)c2cc(C(N)=O)nc3cc(F)ccc23)c(C(F)(F)F)nn1Cc1cc(C#N)no1` [Example 1669], the half-maximal inhibitory concentration (IC50) is 88.8 nM.

The assay is the same for the next values; noted with them: read-out: IC50 regarding glucose induced ATP increase (GLUT1 inhibition).
Turning to `Cc1c(NC(=O)c2cc(C(N)=O)nc3cc(F)ccc23)c(C(F)(F)F)nn1Cc1ccc(C2CCC2)cc1` [Example 1616], the IC50 amounted to 67.4 nM. The same measure, in the same setting: as for `Cc1c(NC(=O)c2cc(C(N)=O)nc3ccccc23)c(C(F)(F)F)nn1Cc1ccc(C2CCC2)cc1` [Example 1617], the figure is 54.9 nM; as for `Cc1c(NC(=O)c2cc(C(N)=O)nc3cccc(F)c23)c(C(F)(F)F)nn1Cc1ccc(C2CCC2)cc1` [Example 1618], 22.3 nM. For the compound `CC(=O)c1cccc(Cn2nc(C(F)(F)F)c(NC(=O)c3cc(C(N)=O)nc4cc(F)ccc34)c2C)c1` [Example 1619], the concentration for half-maximal inhibition (IC50) worked out at 40.1 nM.

Turning to `CC(=O)c1cccc(Cn2nc(C(F)(F)F)c(NC(=O)c3cc(C(N)=O)nc4cccc(F)c34)c2C)c1` [Example 1620], the IC50 was 96.3 nM. On the same count and under the same terms, as for `CC(=O)c1cccc(Cn2nc(C(F)(F)F)c(NC(=O)c3cc(C(N)=O)nc4cc(F)c(Cl)cc34)c2C)c1` [Example 1621], the figure is 15.3 nM; as for `CC(=O)c1cccc(Cn2nc(C(F)(F)F)c(NC(=O)c3cc(C(N)=O)nc4ccccc34)c2C)c1` [Example 1622], 50.1 nM; as for `CC(=O)c1cccc(Cn2nc(C)c(NC(=O)c3cc(C(N)=O)nc4cc(F)c(Cl)cc34)c2C)c1` [Example 1623], 0.8 nM.

For `CC(=O)c1cccc(Cn2nc(C)c(NC(=O)c3cc(C(N)=O)nc4cccc(F)c34)c2C)c1` [Example 1624], the concentration for half-maximal inhibition (IC50) stood at 18.7 nM.

Take `CC(=O)c1cccc(Cn2nc(C)c(NC(=O)c3cc(C(N)=O)nc4cc(F)ccc34)c2C)c1` [Example 1625]: the IC50 was determined as 40.9 nM. Regarding `CC(=O)c1cccc(Cn2nc(C)c(NC(=O)c3cc(C(N)=O)nc4ccccc34)c2C)c1` [Example 1626], the IC50 came to 107 nM. On the same count and under the same terms, as for `Cc1c(NC(=O)c2cc(C(N)=O)nc3cc(F)ccc23)c(C(F)(F)F)nn1Cc1c(F)cccc1F` [Example 1627], the figure is 30.5 nM. The same measure, in the same setting: as for `Cc1c(NC(=O)c2cc(C(N)=O)nc3ccccc23)c(C(F)(F)F)nn1Cc1c(F)cccc1F` [Example 1628], the figure is 15.3 nM; as for `Cc1c(NC(=O)c2cc(C(N)=O)nc3cccc(F)c23)c(C(F)(F)F)nn1Cc1c(F)cccc1F` [Example 1629], 16.2 nM; as for `Cc1c(NC(=O)c2cc(C(N)=O)nc3cc(F)c(Cl)cc23)c(C(F)(F)F)nn1Cc1c(F)cccc1F` [Example 1630], 4 nM. Still for that read-out and setting: as for `Cc1nn(Cc2c(F)cccc2F)c(C)c1NC(=O)c1cc(C(N)=O)nc2cc(F)ccc12` [Example 1631], the figure is 6.5 nM; as for `Cc1nn(Cc2c(F)cccc2F)c(C)c1NC(=O)c1cc(C(N)=O)nc2ccccc12` [Example 1632], 10 nM; as for `Cc1nn(Cc2c(F)cccc2F)c(C)c1NC(=O)c1cc(C(N)=O)nc2cccc(F)c12` [Example 1633], 4.6 nM.

For `Cc1nn(Cc2c(F)cccc2F)c(C)c1NC(=O)c1cc(C(N)=O)nc2cc(F)c(Cl)cc12` [Example 1634], the half-maximal inhibitory concentration (IC50) stood at 2.2 nM. Still for that read-out and setting: as for `Cc1c(NC(=O)c2cc(C(N)=O)nc3ccccc23)c(C(F)(F)F)nn1Cc1cccc(S(C)(=O)=O)c1` [Example 1636], the figure is 292 nM; as for `Cc1c(NC(=O)c2cc(C(N)=O)nc3cc(F)ccc23)c(C(F)(F)F)nn1Cc1cccc(S(C)(=O)=O)c1` [Example 1637], 288 nM. As for `Cc1c(NC(=O)c2cc(C(N)=O)nc3cc(F)c(Cl)cc23)c(C(F)(F)F)nn1Cc1cccc(S(C)(=O)=O)c1` [Example 1638], the concentration for half-maximal inhibition (IC50) came to 61.3 nM. Consider `Cc1c(NC(=O)c2cc(C(N)=O)nc3cccc(F)c23)c(C(F)(F)F)nn1Cc1cccc(S(C)(=O)=O)c1` [Example 1639], for which the IC50 stood at 273 nM. For the compound `Cc1nn(Cc2cccc(S(C)(=O)=O)c2)c(C)c1NC(=O)c1cc(C(N)=O)nc2cc(F)ccc12` [Example 1640], the IC50 was found to be 277 nM. Same read-out and setting: as for `Cc1nn(Cc2cccc(S(C)(=O)=O)c2)c(C)c1NC(=O)c1cc(C(N)=O)nc2cccc(F)c12` [Example 1641], the figure is 168 nM.

As to `Cc1nn(Cc2cccc(S(C)(=O)=O)c2)c(C)c1NC(=O)c1cc(C(N)=O)nc2ccccc12` [Example 1642], the IC50 is 289 nM. With `Cc1nn(Cc2cccc(S(C)(=O)=O)c2)c(C)c1NC(=O)c1cc(C(N)=O)nc2cc(F)c(Cl)cc12` [Example 1643], the 50% inhibitory concentration (IC50) came out at 34.4 nM. On the same count and under the same terms, as for `COc1cc(C#N)ccc1Cn1nc(C(F)(F)F)c(NC(=O)c2cc(C(N)=O)nc3cc(F)ccc23)c1C` [Example 1646], the figure is 2.3 nM; as for `COc1cc(C#N)ccc1Cn1nc(C(F)(F)F)c(NC(=O)c2cc(C(N)=O)nc3cccc(F)c23)c1C` [Example 1647], 2.7 nM.

`COc1cc(C#N)ccc1Cn1nc(C(F)(F)F)c(NC(=O)c2cc(C(N)=O)nc3cc(F)c(Cl)cc23)c1C` [Example 1648]: the 50% inhibitory concentration (IC50) worked out at 2.3 nM.

For the compound `COc1cc(C#N)ccc1Cn1nc(C)c(NC(=O)c2cc(C(N)=O)nc3cc(F)ccc23)c1C` [Example 1649], the concentration for half-maximal inhibition (IC50) was 67.2 nM.

Turning to `COc1cc(C#N)ccc1Cn1nc(C)c(NC(=O)c2cc(C(N)=O)nc3cccc(F)c23)c1C` [Example 1650], the IC50 is 10.3 nM. Still for that read-out and setting: as for `COc1cc(C#N)ccc1Cn1nc(C)c(NC(=O)c2cc(C(N)=O)nc3cc(F)c(Cl)cc23)c1C` [Example 1651], the figure is 3.2 nM; as for `Cc1c(NC(=O)c2cc(C(N)=O)nc3ccccc23)c(C(F)(F)F)nn1Cc1cc(F)ccc1C#N` [Example 1652], 112 nM; as for `Cc1c(NC(=O)c2cc(C(N)=O)nc3cc(F)ccc23)c(C(F)(F)F)nn1Cc1cc(F)ccc1C#N` [Example 1653], 266 nM. Still for that read-out and setting: as for `Cc1c(NC(=O)c2cc(C(N)=O)nc3cccc(F)c23)c(C(F)(F)F)nn1Cc1cc(F)ccc1C#N` [Example 1654], the figure is 221 nM; as for `Cc1c(NC(=O)c2cc(C(N)=O)nc3cc(F)c(Cl)cc23)c(C(F)(F)F)nn1Cc1cc(F)ccc1C#N` [Example 1655], 238 nM.

`Cc1c(NC(=O)c2cc(C(N)=O)nc3cccc(F)c23)c(C(F)(F)F)nn1Cc1ccc(F)cc1C#N` [Example 1656]: the IC50 worked out at 12.5 nM. Still for that read-out and setting: as for `Cc1c(NC(=O)c2cc(C(N)=O)nc3cc(F)c(Cl)cc23)c(C(F)(F)F)nn1Cc1ccc(F)cc1C#N` [Example 1657], the figure is 3.4 nM. Still for that read-out and setting: as for `Cc1c(NC(=O)c2cc(C(N)=O)nc3cc(F)ccc23)c(C(F)(F)F)nn1Cc1ccc(F)cc1C#N` [Example 1658], the figure is 3.2 nM; as for `Cc1c(NC(=O)c2cc(C(N)=O)nc3ccccc23)c(C(F)(F)F)nn1Cc1ccc(F)cc1C#N` [Example 1659], 4.7 nM; as for `Cc1nn(Cc2ccc(F)cc2C#N)c(C)c1NC(=O)c1cc(C(N)=O)nc2cc(F)ccc12` [Example 1660], 1.3 nM. Still for that read-out and setting: as for `Cc1nn(Cc2ccc(F)cc2C#N)c(C)c1NC(=O)c1cc(C(N)=O)nc2ccccc12` [Example 1661], the figure is 3.4 nM. For `Cc1nn(Cc2ccc(F)cc2C#N)c(C)c1NC(=O)c1cc(C(N)=O)nc2cccc(F)c12` [Example 1662], the IC50 was 4 nM. In the case of `Cc1nn(Cc2ccc(F)cc2C#N)c(C)c1NC(=O)c1cc(C(N)=O)nc2cc(F)c(Cl)cc12` [Example 1663], the 50% inhibitory concentration (IC50) was 1.1 nM. Still for that read-out and setting: as for `COc1cc(Cn2nc(C(F)(F)F)c(NC(=O)c3cc(C(N)=O)nc4cc(F)ccc34)c2C)ccc1C#N` [Example 1664], the figure is 2.6 nM.

As for `COc1cc(Cn2nc(C(F)(F)F)c(NC(=O)c3cc(C(N)=O)nc4cccc(F)c34)c2C)ccc1C#N` [Example 1665], the IC50 amounted to 3.8 nM.

For `COc1cc(Cn2nc(C(F)(F)F)c(NC(=O)c3cc(C(N)=O)nc4cc(F)c(Cl)cc34)c2C)ccc1C#N` [Example 1666], the IC50 was 0.8 nM. Regarding `Cc1c(NC(=O)c2cc(C(N)=O)nc3ccccc23)c(C(F)(F)F)nn1Cc1ccc(C(C)(C)C#N)cc1` [Example 1667], the concentration for half-maximal inhibition (IC50) was 46.6 nM. On the same count and under the same terms, as for `Cc1c(NC(=O)c2cc(C(N)=O)nc3cc(F)ccc23)c(C(F)(F)F)nn1Cc1ccc(C#N)cc1O` [Example 1668], the figure is 23.6 nM; as for `CCOC(=O)c1cc(Cn2nc(C)c(NC(=O)c3cc(C(N)=O)nc4cc(F)ccc34)c2C)on1` [Example 1670], 17.1 nM; as for `Cc1c(NC(=O)c2cc(C(N)=O)nc3ccccc23)c(C(F)(F)F)nn1CC(=O)Nc1ccccc1O` [Example 1671], 149 nM. Still for that read-out and setting: as for `Cc1c(NC(=O)c2cc(C(N)=O)nc3ccccc23)c(C(F)(F)F)nn1Cc1cc(C#N)no1` [Example 1672], the figure is 151 nM. The same measure, in the same setting: as for `Cc1c(NC(=O)c2cc(C(N)=O)nc3cc(F)c(Cl)cc23)c(C(F)(F)F)nn1Cc1cc(C#N)no1` [Example 1673], the figure is 56.1 nM; as for `Cc1c(NC(=O)c2cc(C(N)=O)nc3cc(F)ccc23)c(C(F)(F)F)nn1Cc1csc(C#N)n1` [Example 1674], 21 nM; as for `Cc1c(NC(=O)c2cc(C(N)=O)nc3cc(F)c(Cl)cc23)c(C(F)(F)F)nn1Cc1cc(CN2CCOCC2)on1` [Example 1676], 81.8 nM.

The values are drawn from patent US20170037028A1 (BAYER PHARMA AKTIENGESELLSCHAFT, priority 2013, published 2017).
